Consider 2 compounds from patent publication US10806721B2, “Formulation for use in the treatment of uremic pruritus” (DRUG DELIVERY SOLUTIONS, priority 2016, dated 2020).

The test system of data set [1] is Human Reconstructed Epidermis (RHE). Description: ELISA of carbamoylated proteins in RHE with urea in the growth medium (Example 4). It counts as cell-based. From the text: (§1) Protein analysis was made according to a previous developed method (14). Carbamoylated proteins from the skin samples were coated to ELISA wells and quantified using a using a primary polyclonal anti-homocitrullin antibody and a secondary labelled polyclonal detection antibody.
The same method as described in example 3 was used. The studies were based on the use of the Human Reconstructed Epidermis (RHE) model purchased from Episkin®. Three experiments were made in duplicate including 2 controls. Growth media (1 ml) with and without additions (see below) were replaced daily accordingly to the standard protocol. In contrast to Example 3 the urea exposure was made by addition of urea to the growth medium. Experiment 1 corresponds to the two controls; experiment 2 was with growth medium with 4 mg/ml urea; experiment 3 was with growth medium with 4 mg/ml urea and with addition of 5 mg […] cream with 2% amino acids applied on top of RHE skin surface at Day 0 and Day 3. All 6 skin samples looked macroscopically healthy when they were harvested after 6 days. There were no signs of infection or necrosis. They were immediately frozen at minus 80° C. until protein analysis. Parts of all samples were sent for histological examination.
Protein carbamoylated was investigated using the same method as in Experiment 3.
For orientation: In an ELISA, binding on a coated surface is turned into a signal by an enzyme label.

In data set [2] the test system is reconstructed human epidermis (RHE). Description: ELISA of carbamoylated proteins in reconstructed human epidermis exposed to urea from the stratum corneum side (Example 3). The class given is cell-based. The settings on record: for ELISA reading, carbamoylated proteins, Day 3: harvested day 3; for ELISA reading, carbamoylated proteins, Day 6: harvested day 6; for carbamylation of proteins (result in words): exposure on top of RHE skin samples, within 6 days. The procedure: (§2) To further investigate possible carbamylation in human skin in UP (Uremic Pruritus) the inventors conducted a series of studies in the reconstructed human epidermis (RHE) model. The 4 cm^2 large skin samples were delivered from Episkin® in 6 well plates each with a volume of 1 ml. The experiments were carried out in 18-25 days old skin samples. RHE is a standardized technology used to investigate metabolic, toxic and inflammatory reactions in the skin (13). The skin samples were developed from human epidermal stem cells. They were developed on a […] net with an underlying growth medium. The RHE contains all the different cell layers in the epidermis, including stratum corneum. The samples are kept at 37° C. in a 5% CO2 atmosphere. They are handled under sterile conditions. New growth medium is added daily. The 4 cm^2 large skin samples were ready for use after 18 days' development; a time span similar to the normal turnover of human skin.
(§3) 12 individual experiments were carried out including 2 controls. Growth media (1 ml) were replaced daily according to the standard protocol. 6 of the samples were harvested at day 3 and 6 at day 6 and immediately frozen at minus 80° C. until protein analysis. Parts of all samples were sent for histologic examination.
(§4) The following exposures (individual experiments), all from stratum corneum side of the skin sample, were made.
1. Controls: Left untreated.
(§5) 2. Urea in an aqueous solution in the same amount—calculated as mg/cm^2 skin—, as in UP. This calculated amount corresponds to 0.3 mg/cm^2, based on calculation of the sum of the average serum levels of urea in uremic patients, urea from sweat, and contribution from active transport of urea into the cells in epidermis. The addition of urea is done by the addition of 200 μl of a solution of 6 mg urea/ml) to the surface of the skin samples.
(§6) 3. As under above item 2 but in double amount (0.6 mg/cm^2).
(§7) 4. As under above item 3 and added 200 μl of a 1% histidine solution.
(§8) 5. 5% commercially available urea cream dosed as intended human use
6. 10% commercially available urea cream dosed as intended human use
The skin samples harvested at day 3 were exposed day 0 to 2-6 and day 1 to 2-4. (tabl. 1)
The skin samples is harvested at day 6 were exposed as above and further day 3 to 2-6. In agreement with Table 1 the aqueous urea solution was absorbed immediately through the skin samples. The two creams left a deposit on top of the skin and were therefore only applied twice; day 0 and day 3 (for the 6-day experiment). Daily exposures were abstained to minimize the risk of infection. […] Further the urea concentrations from experiments 2, 3 and 4 harvested day 6 may have been relatively low due to only one supplementary exposure day 3.
as §1

The test system is the same in data set [3]. Description: Histological examination of reconstructed human epidermis exposed to urea (Example 3). The class given is cell-based. The procedure:
as §2, §3, §4, §5, §6, §7, §8
6. 10% commercially available urea cream dosed as intended human use […]

A short description of data set [4]: Degradation of histidine in the cream of Example 1 exposed to urea. The settings on record: cream of Example 1 with 10 w/w % urea; six weeks at 40° C. It counts as physicochemical. The procedure: The degradation process was followed over time and after six weeks at 40° C. only 20% histidine was left in the cream having 10 w/w % urea.
[5] abbreviates: Urea conc. as in UP (high) 12 mg, 0.6 mg/cm^2 on skin surface.
The mark [6] stands for this setting: Urea conc. as in UP (moderate) 6 mg, 0.3 mg/cm^2 on skin surface.
Setting [7] is: 0.5% histidine added to urea conc. as in UP (high) 12 mg.

Molecules are shown by their SMILES.

In the case of `NC(N)=O` [Urea], in data set [1] (GM + 4 mg urea/ml, harvested after 6 days), the “Elisa reading, carbamoylated proteins, average of two experiments” value came out at 0.68 absorbance units. The “level of protein carbamylation (result in words)” value in data set [1] (growth medium with 4 mg/ml urea, 6 days) is “highest level of carbamylation”. Further, the “ELISA reading, carbamoylated proteins, Day 3” value in data set [2] (setting [5]) came out at 0.316 absorbance units; in data set [2] (setting [6]) it was 0.377 absorbance units. The “ELISA reading, carbamoylated proteins, Day 6” value is reported as 0.475 absorbance units in data set [2] (setting [5]) and 0.368 absorbance units in data set [2] (setting [6]). Also, the “carbamylation of proteins (result in words)” value in data set [2] is listed as “could be demonstrated”. Further, in data set [3] (harvested day 3), the “histological changes (edema and disruptions in stratum corneum, premature cell death in stratum spinosum)” value is “significant changes”. In addition, in data set [3] (harvested day 6), the histological changes result is “recovered to a certain extent”.
`N[C@@H](Cc1c[nH]cn1)C(=O)O` [histidine]: the “histidine left in the cream” value in data set [4] is listed as 20%. Further, in data set [2] (setting [7]), the “ELISA reading, carbamoylated proteins, Day 3” value stood at 0.312 absorbance units and the “ELISA reading, carbamoylated proteins, Day 6” value was 0.321 absorbance units. Further, the “carbamylation of proteins (result in words)” value in data set [2] is reported as “prevented this carbamylation”. Also, in data set [3] (histidine added to urea 0.6 mg/cm^2, harvested both day 3 and day 6), the “effect on urea-induced edema and cell death (histology)” value is “can counteract this effect”.
